Measurements from patent US8980885B2, “Plant disease controlling composition and method for controlling plant disease” (Sumitomo Chemical Company, Limited, priority 2008, dated 2015).

Test system: Sclerotinia sclerotiorum
Experiment: Controlling test against Sclerotinia sclerotiorum on cucumber by foliage spraying (Test Example 1)
Type: in vivo
Conditions: single compound, 12° C., high humidity, 6 days
Description: A sand loam was charged into a plastic pot, and cucumber (Sagamihanjiro) was seeded, and grown in a greenhouse for 12 days. A flowable of the compound I, and a flowable comprising any one of the compound II-i, the compound II-ii, the compound III, the compound IV, the compound V and the compound VI were diluted with water separately, and they were tank-mixed to prepare a tank mix solution having each predetermined concentration. The tank mix solution was subjected to foliage spraying so that it was sufficiently adhered to a leaf surface of the cucumber. After spraying, the plant was air-dried, and a PDA medium containing hyphae of Sclerotinia sclerotiorum was placed on the cucumber leaf surface. After seeding, this was placed under 12° C. and the high humidity for 6 days, the controlling effect was investigated. Separately, for comparison, each of the flowables was diluted with water to prepare a water-diluted solution of compounds I to VI having the predetermined concentration, and the similar controlling test was carried out. Further, for calculating a effective value, an onset area rate (ratio of onset area occupied in leaf area examined) in each treatment group was determined. The effective value was calculated by the Equation 1. […] A: Onset area rate of non-treated group B: Onset area rate of treated group In general, an effective value expected in treatment by mixing given two kinds of active ingredient compounds, i.e., an expected effective value is calculated by a Colby calculation equation of the Equation 2. E=X+Y−(X×Y)/100 “Equation 2” X: Effective value obtained by treatment with M ppm of the compound I Y: Effective value obtained by treatment with N ppm of the compound II, III or IV E: Effective value expected in treatment with M ppm of the compound I and N ppm of the compound II, III or IV (expected effective value) In addition, a synergistic effect was shown herein by a value calculated by the following Equation 3.

| Compound | Actual effective value (0.2 ppm) | Actual effective value (0.8 ppm) | Actual effective value (3.1 ppm) |
| --- | --- | --- | --- |
| CNC(=O)C(OC)c1ccccc1COc1cc(C)ccc1C (racemic) [Compound II-ii] | 4% | 31% |  |
| CNC(=O)[C@H](OC)c1ccccc1COc1cc(C)ccc1C [Compound II-i] | 14% | 55% |  |
| CNC(=O)/C(=N/OC)c1ccccc1COc1cc(C)ccc1C [Compound III, (αE)-2-[(2,5-dimethylphenoxy)methyl]-α-(methoxyimino)-N-methylbenzeneacetamino, reference compound] | 9% |  |  |
| CO/N=C(/C(=O)OC)c1ccccc1CO/N=C(\C)c1cccc(C(F)(F)F)c1 [Compound IV, methyl (E)-methoxyimino-{(E)-α-[1-(α,α,α-trifluoro-m-tolyl]ethylideneaminooxy)-o-tolyl)acetate, reference compound] | 28% |  |  |
| C=CCSC(=O)n1c(N)c(-c2ccccc2C)c(=O)n1C(C)C [Compound I] |  |  | 58% |
| CO/C=C(/C(=O)OC)c1ccccc1Oc1cc(Oc2ccccc2C#N)ncn1 [Compound V, methyl (E)-2-{2-[6-(2-cyanophenoxy)pyrimidin-4-yloxy]phenyl}-3-methoxyacrylate, reference compound] | 10% |  |  |
| COC(=O)N(OC)c1ccccc1COc1ccn(-c2ccc(Cl)cc2)n1 [Compound VI, methyl 2-[[1-(4-chlorophenyl)-1H-pyrazol-3-yloxymethyl]phenyl](N-methoxy)carbamate, reference compound] | 29% |  |  |
